Results reported in ChEMBL document CHEMBL1132162, “Microanalysis of a selective potent anti-Helicobacter pylori compound in a Brazilian medicinal plant, Myroxylon peruiferum and the activity of analogues” (1999).
In brackets after ≈: the same amount, converted by molar mass. Activity calls are given as the source filed them. No cut-off for these calls is given here.

Legend:
Helicobacter pylori = experiment: Anti-bacterial activity against Helicobacter pylori; format: functional
Bacillus subtilis = experiment: Anti-microbial activity against gram-positive bacteria Bacillus subtilis at 625 ug/mL concentration; Inactive; format: functional, organism-based
Bacteroides fragilis = experiment: Anti-microbial activity against gram-positive bacteria Bacteroides fragilis at 625 ug/mL concentration; Inactive; format: functional, organism-based
Candida albicans = experiment: Anti-microbial activity against yeast candida albicans at 625 ug/mL concentration; Inactive; format: functional, organism-based
Escherichia coli = experiment: Anti-microbial activity against gram-negative bacteria Escherichia coli at 625 ug/mL concentration; Inactive; format: functional, organism-based
Micrococcus luteus = experiment: Anti-microbial activity against gram-positive bacteria Micrococcus lutea at 625 ug/mL concentration; Inactive; format: functional, organism-based
Pseudomonas aeruginosa = experiment: Anti-microbial activity against gram-negative bacteria Pseudomonas aeruginosa at 625 ug/mL concentration; Inactive; format: functional, organism-based
Saccharomyces cerevisiae = experiment: Anti-microbial activity against yeast Saccharomyces cerevisiae at 625 ug/mL concentration; Inactive; format: functional, organism-based

| SMILES | MIC (Helicobacter pylori) [µg/mL] | also measured |
| --- | --- | --- |
| O=c1ccoc2ccccc12 [CHROMONE] | > 20 |  |
| COc1ccc(CC(=O)c2ccc(OC)cc2)cc1 | > 20 |  |
| COc1ccc2c(c1)OC=C(c1ccc(OC)c(OC)c1)[C@H]2O | 16 (≈ 50.9 µM) |  |
| COc1ccc(C)cc1OC | > 20 |  |
| COc1ccc(-c2coc3cc(OC)cc(OC)c3c2=O)cc1 [BIOCHANIN A, DIMETHYL ETHER] | > 20 |  |
| O=c1c(-c2ccc(O)c(O)c2)coc2cc(O)ccc12 | > 20 |  |
| CCOc1ccc2c(=O)c(-c3ccc(OCC)c(OCC)c3)coc2c1 | 18 (≈ 50.8 µM) |  |
| COc1ccc(-c2coc3cc(OC)ccc3c2=O)cc1 | > 20 |  |
| COc1ccc(-c2coc3cc(OC)c(OC)cc3c2=O)cc1 | > 20 |  |

The next lines start with results.

| MIC (Helicobacter pylori) [µg/mL] | SMILES | also measured |
| --- | --- | --- |
| 16 (≈ 50.9 µM) | COc1ccc2c(c1)OC=C(c1ccc(OC)c(OC)c1)[C@@H]2O |  |
| > 20 | COc1ccc2c(=O)cc(-c3ccc(OC)c(OC)c3)oc2c1 [7,3',4'-Trimethoxyflavone] |  |
| > 20 | COc1ccc2c(c1)OCC(c1ccc(OC)c(OC)c1)C2=O (stereo not given) |  |
| 7.8 (≈ 25 µM) | COc1ccc2c(=O)c(-c3ccc(OC)c(OC)c3)coc2c1 | Activity (Bacillus subtilis): inactive; Activity (Bacteroides fragilis): inactive; Activity (Candida albicans): inactive; Activity (Escherichia coli): inactive; Activity (Micrococcus luteus): inactive; Activity (Pseudomonas aeruginosa): inactive; Activity (Saccharomyces cerevisiae): inactive |
